Experimental findings from US20240166627A1, “Terpyridinedione compound or salt thereof, and preparation method and application thereof” (SHENZHEN SALUBRIS PHARMACEUTICALS CO., LTD., priority 2021, published 2024) are described below.

Usually AUC(0-t) stands for the area under the concentration-time curve up to a stated or last time point. Usually Cmax stands for the highest concentration seen after dosing. In general, solubility refers to the concentration that dissolves in the medium under given conditions. A higher solubility goes with much dissolved substance.

Data set [1] can be described thus: Pharmacokinetic experiment in Beagle dogs (IV and PO). Format: in vivo. As to conditions: male, dog, plasma. The text has this: Polyethylene glycol 400 (batch number: GORKREUT, Saen Chemical Technology (Shanghai) Co., Ltd.); DMSO (batch number: 20200319, GHTECH (Guangdong) Co., Ltd.); and normal saline (batch number: C20052604, Jiangxi Kelun Pharmaceutical Co., Ltd.). An LC-MS instrument (Thermo Fisher Ultimate 3000 UPLC, TSQ QUANTUM ULTRA TSQ Quantum GC).
5 male Beagle dogs with weights being 5 kg to 7 kg, purchased from Beijing Mars Biotechnology Co., Ltd. […]
After the above mixture is given to the dogs through intragastric administration (n=3) or intravenous administration (n=2), about 1 mL of blood is collected from the forelimb or hindlimb vein with a scalp needle, respectively, at 5 min (intravenous administration only), 15 min, 30 min, 1 h, 2 h, 4 h, 6 h, 8 h, 24 h to put into blood collection tubes containing EDTA-K2 anticoagulant; centrifugation is performed for 10 min at 4000 rpm to separate plasma; and then the tubes are stored at −80° C. for testing.
A certain amount of a test sample is accurately weighted and dissolved with DMSO to 2 mg/mL, as a stock solution. The stock solution is diluted to 30000, 10000, 3000, 1000, 300, 100, 50, 30, and 10 ng/mL by using acetonitrile:water (1:1), to obtain standard curve working solutions. 5 μL of the working solution is added to 45 μL of blank canine plasma; and well mixing is performed through vortex, to prepare into standard curve samples equivalent to plasma concentrations of 3000, 1000, 300, 100, 30, 10, 5, 3, and 1 ng/mL. 30 μL of the standard curve sample and the collected plasma sample (plasma collected at 5 min, 15 min, and 30 min of intravenous administration is diluted 5-fold) are added to 150 μL of a propranolol acetonitrile solution (internal standard, 50 ng/mL) to precipitate protein, then 100 μL of water is added to well mix through vortex; centrifugation is performed for 5 min at 4000 rpm; and supernatant is taken for LC-MS analysis. LC-MS detection conditions include the following.
Chromatographic column: Waters ACQUITY™ PREMIER HSS T3, 50*2.1 mm, 1.8 μm.
Mobile phase A: water (0.1% formic acid); mobile phase B: acetonitrile; flow rate: 0.5 mL/min; and gradient elution is shown in Table 3 below.
After LC-MS detection of blood drug concentration, and a non-compartment model of WinNonlin 6.1 software is adopted to calculate pharmacokinetic parameters of beagle dogs after administration.

The target in a further data set is p38α/MK2 complex (Homo sapiens, UniProt P49137+Q16539). The experiment in a line: p38α/MK2 complex kinase screening experiment (IMAP FP). The following applies: p38α 0.2 nM, MK2 unactive 1 nM, HSP27 substrate 1 μM, ATP 10 μM; read-out: IC50 value that the compound inhibits p38α/MK2 complex. Format: biochemical. How it is done:
A certain amount of a drug is weighted and prepared into a 10 mM of mother solution by using DMSO; the mother solution is diluted to 100 μM (100× working solution) in two steps; and then, the solution is diluted 3-fold to 33.33 μM, 11.11 μM, 3.70 μM, 1.23 μM, 0.41 μM, 0.14 μM, 0.046 μM, 0.015 μM, and 0.005 μM, successively. DMSO control is also arranged.
Then, a series of diluted DMSO drugs are diluted 25 folds with 1×IMAP Reaction Buffer as a 4× drug working solution.
10 gradient concentrations and 2 duplicated wells are set to each group of compounds; and a DMSO control group and a negative control group (DMSO, no ATP) are additionally set.
• c), after 1 h of incubation at room temperature, 1× Progressive Binding Solution is added to end the enzymatic reaction; after 30 min of incubation, a BMGPHERASTER FSX multifunctional microplate reader is used to detect a Fluorescence Polarization (FP) signal [FP(Ex485/Em520/Em520 nm)].

Data set [2] in a line: Determination of solubility. The following applies: aqueous buffer, thermodynamic from solid, 37° C. 1 h. Format: physicochemical. The method, then: About 0.5 mg of a to-be-tested sample in a centrifuge tube is weighted, an appropriate amount of DMSO is added to completely dissolve the sample, and then methanol is added to make up to 1 ml.
(If there are more pH values to be investigated, the preparation method may be deduced by analogy).
3. The prepared control solution and test solution are simultaneously put into a 37° C. water bath and heated for 1 h, after 1 h, the solutions are taken out and cooled to room temperature, and then the solutions are filtered with a 0.22 μm filter membrane for sample injection.
4. The concentration of the sample in the test solution is calculated according to C=(A*(ms/vs))/AS, and experiment results are shown in Table 2.
Note: ms, vs and AS are the weight, volume and peak area of the sample in the control solution, respectively.
A is the peak area of the test solution.

Data set [3] deals with production of TNFα in U937. Kind of data set: Releasing TNFα from U937 induced by LPS. The following applies: Homo sapiens, U-937; PMA-differentiated U937, LPS 100 ng/ml, 4 h; read-out: IC50 value that the compound inhibits the production of TNFα. Format: cell-based. The text has this: Cytokine regulation in human monocytes has shown that the p38 pathway is the key to the biosynthesis of a plurality of pro-inflammatory cytokines including TNFα, IL-1β and IL-6. Therefore, the inhibition of the p38 MAPK pathway is to reduce inflammatory response by reducing the biosynthesis of the pro-inflammatory cytokines. […] This is a reflection of the effect of the compound in the present invention to facilitate reduction of inflammation, which is useful in the treatment of various diseases, including chronic inflammatory diseases, acute inflammatory diseases, or self-inflammatory diseases. The potency and efficacy of the p38 inhibitor in blocking cytokine production are evaluated using a human U937 cell line.
A 1640 medium with an article number being A10491-01, Gibco; penicillin-streptomycin with an article number being 15140-122, Gibco; fetal bovine serum with an article number being 10099-141C, Gibco; PBS with an article number being 10010-031, Gibco; LPS with an article number being L2880, Sigma; PMA with an article number being P1585, Sigma; dimethyl sulfoxide with an article number being D8418-1L, Sigma; and a TNFα kit with an article number being K151QWD-4, MSD.
A 96-well plate with an article number being 3599, Corning; a plate-vibrating device with an article number being QB-9002, QILINBEIER; a centrifuge with an article number being 5810R, Eppendorf; a carbon dioxide incubator with an article number being 371, Thermo; a counter with an article number being C10281, Gibco; a microscope with an article number being CKX41, OLYMPUS; and an MSD plate reader with an article number being 1201 MESO SECTOR 600, MSD.
U937, ATCC with an article number being CRL-1593.2.
About 2 mg of a drug is weighted; a mother solution is prepared to 10 mM (which is calculated by free alkali) by means of DMSO; and the mother solution is diluted 10-fold to 1 mM, and then is successively diluted 4-fold to 250 μM, 62.5 μM, 15.6 μM, 3.9 μM, 0.97 μM, 0.24 μM, and 0.061 μM. The above series of diluted DMSO drugs is diluted 20-fold as working solutions by using media.
At Day 0, 10000/well inoculation is performed, stimulation is performed for 48 h with 20 ng/ml of PMA, and culture is performed at 37° C., 5% CO2. • At Day 2, 1. Supernatant is removed from differentiated U937, cleaning is performed once with PBS, and 96 μl of the 1640 medium is added. • 2. 2 μl of the compound containing (DMSO with a final concentration being 0.1%), and culture is performed for 30 min at 37° C., 5% CO2. • 3. 2 μl of LPS (a final concentration being 100 ng/ml) is added, cells are stimulated, and culture is performed for 4 h at 37° C., 5% CO2. • 4. Centrifugation is performed, supernatant is taken, and content of TNFα in the supernatant is determined through ELISA.
The content of TNFα corresponding to each well is calculated by using a standard curve in the kit.
The compound IC50 is calculated by using a GraphPad nonlinear fitting formula, and for an experimental result, refer to Table 1.

In brackets after ≈: the same amount, converted by molar mass.

Sequence of p38α/MK2 complex (Q16539 whole entry): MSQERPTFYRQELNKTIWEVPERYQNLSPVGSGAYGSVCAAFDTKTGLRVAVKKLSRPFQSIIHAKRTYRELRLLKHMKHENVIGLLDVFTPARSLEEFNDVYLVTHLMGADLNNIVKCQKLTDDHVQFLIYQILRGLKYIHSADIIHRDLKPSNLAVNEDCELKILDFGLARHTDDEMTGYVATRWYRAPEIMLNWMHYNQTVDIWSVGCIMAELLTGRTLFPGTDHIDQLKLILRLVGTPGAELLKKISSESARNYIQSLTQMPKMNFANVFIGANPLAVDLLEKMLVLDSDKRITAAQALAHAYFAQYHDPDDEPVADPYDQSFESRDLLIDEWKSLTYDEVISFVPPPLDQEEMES
Sequence of p38α/MK2 complex (P49137 whole entry): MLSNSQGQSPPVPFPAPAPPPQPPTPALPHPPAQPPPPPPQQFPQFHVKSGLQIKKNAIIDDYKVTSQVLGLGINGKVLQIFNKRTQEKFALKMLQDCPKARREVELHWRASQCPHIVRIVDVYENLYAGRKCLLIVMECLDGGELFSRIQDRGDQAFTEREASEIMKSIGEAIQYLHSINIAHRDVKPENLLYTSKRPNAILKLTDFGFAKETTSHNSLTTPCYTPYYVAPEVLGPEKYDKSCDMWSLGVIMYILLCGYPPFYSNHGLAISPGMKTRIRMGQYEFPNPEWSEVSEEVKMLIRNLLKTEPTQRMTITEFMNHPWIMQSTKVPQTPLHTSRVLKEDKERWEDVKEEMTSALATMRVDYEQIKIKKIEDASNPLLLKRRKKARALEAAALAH

In data set [1] (IV 1 mg/kg), `Cc1cnc(-n2cccc(C(C)(C)O)c2=O)cc1-n1c(C)cc(OCc2ncc(F)cc2F)c(Cl)c1=O` (racemic) [Embodiment 1, 3″-chloro-4″-((3,5-difluoropyridine-2-yl)methoxy)-3-(2-hydroxypropane-2-yl)-5′,6″-dimethyl-2H,2″H-[1,2′:4′,1″-terpyridine]-2,2″-diketone] came in with an AUC(0-t) of 2870 ng·h/mL, a Cmax of 1510 ng/mL and a clearance of 6.15 mL/min/kg. Further, the bioavailability in data set [1] (PO 5 mg/kg vs IV 1 mg/kg) was found to be 229%.

Consider `Cc1cnc(-n2cccc(C(C)(C)O)c2=O)cc1-n1c(C)cc(OCc2ncc(F)cc2F)c(Cl)c1=O` (single isomer, unassigned) [Comparative example 1A, reference compound], for which, on p38α/MK2 complex, the IC50 stood at 0.53 nM.

Turning to `Cc1cnc(-n2cccc(C(C)(C)O)c2=O)cc1-n1c(C)cc(OCc2ncc(F)cc2F)cc1=O` [Embodiment 2, 4″-((3,5-difluoropyridine-2-yl)methoxy)-3-(2-hydroxypropane-2-yl)-5′,6″-dimethyl-2H,2″H-[1,2′:4′,1″-terpyridine]-2,2″-diketone], the solubility at 1 h amounted to 192 µg/mL (≈ 388 µM) in data set [2] (pH = 2.0, PBS buffer) and 234 µg/mL (≈ 474 µM) in data set [2] (pH = 7.4, PBS buffer).

As to `Cc1cnc(-n2cccc(C(C)(C)O)c2=O)cc1-n1c(C)cc(OCc2ccccn2)c(Cl)c1=O` [Embodiment 3], the IC50 in data set [3] worked out at 14.7 nM. For the same molecule, the solubility at 1 h worked out at 1290 µg/mL (≈ 2610 µM) in data set [2] (pH = 2.0, PBS buffer) and 140 µg/mL (≈ 284 µM) in data set [2] (pH = 7.4, PBS buffer).

As to `Cc1cnc(-n2cccc(C(C)(C)O)c2=O)cc1-n1c(C)cc(OCc2ncc(Br)cc2F)c(Cl)c1=O` [Embodiment 16, 3″-chloro-4″-((3-fluoro-5-bromopyridine-2-yl)methoxy)-3-(2-hydroxypropane-2-yl)-5′,6″-dimethyl-2H,2″H-[1,2′:4′,1″-terpyridine]-2,2″-diketone], the IC50 at p38α/MK2 complex was determined as 3.35 nM; in data set [3], 3.31 nM.

For the molecule `Cc1cnc(-n2cccc(C(C)(C)O)c2=O)cc1-n1c(C)cc(OCc2cccc(F)c2F)c(Cl)c1=O` [Embodiment 17, 3″-chloro-4″-((2,3-difluorobenzyl)oxy)-3-(2-hydroxypropane-2-yl)-5′,6″-dimethyl-2H,2″H-[1,2′:4′,1″-terpyridine]-2,2″-diketone], the figures for the IC50 (at p38α/MK2 complex; in data set [3]) were 1.33 nM and 1.73 nM, respectively.

With `Cc1cnc(-n2cccc(C(C)(C)O)c2=O)cc1-n1c(C)cc(OCc2ncccc2F)c(Cl)c1=O` [Embodiment 20, 3″-chloro-4″-((3-fluoropyridine-2-yl)methoxy)-3-(2-hydroxypropane-2-yl)-5′,6″-dimethyl-2H,2″H-[1,2′:4′,1″-terpyridine]-2,2″-diketone], the IC50 in data set [3] came out at 6.86 nM. Also, the solubility at 1 h in data set [2] (pH = 2.0, PBS buffer) was found to be 769 µg/mL (≈ 1500 µM); in data set [2] (pH = 7.4, PBS buffer) it was 773 µg/mL (≈ 1510 µM).

As to `CCC(C)(O)c1cccn(-c2cc(-n3c(C)cc(OCc4ncc(F)cc4F)c(Cl)c3=O)c(C)cn2)c1=O` (stereo not shown) [Embodiment 26, 3″-chloro-4″-((3,5-difluoropyridine-2-yl)methoxy)-3-(2-hydroxybutane-2-yl)-5′,6″-dimethyl-2H,2″H-[1,2′:4′,1″-terpyridine]-2,2″-diketone], the IC50 at p38α/MK2 complex worked out at 2.26 nM; in data set [3] it was 2.84 nM.

Consider `Cc1cnc(-n2cccc(C3CCOCC3)c2=O)cc1-n1c(C)cc(OCc2ncc(F)cc2F)c(Cl)c1=O` [Embodiment 40, 3″-chloro-4″-((3,5-difluoropyridine-2-yl)methoxy)-5′,6″-dimethyl-3-(tetrahydro-2H-pyran-4-yl)-2H, 2″H-[1,2′:4′,1″-terpyridine]-2,2″-diketone], for which, at p38α/MK2 complex, the IC50 is 2.85 nM.

On to `Cc1cnc(-n2cccc(C(C)(C)O)c2=O)cc1-n1c(C)cc(OCc2ncc(F)cc2F)c(Br)c1=O` [Embodiment 41, 3″-bromo-4″-((3,5-difluoropyridine-2-yl)methoxy)-3-(2-hydroxypropane-2-yl)-5′,6″-dimethyl-2H,2″H-[1,2′:4′,1″-terpyridine]-2,2″-diketone], for which, at p38α/MK2 complex, the IC50 was 1.58 nM.

Turning to `CCc1cnc(-n2cccc(C(C)(C)O)c2=O)cc1-n1c(C)cc(OCc2ncc(F)cc2F)c(Cl)c1=O` [Embodiment 42, 3″-chloro-5′-ethyl-4″-((3,5-difluoropyridine-2-yl)methoxy)-3-(2-hydroxypropane-2-yl)-6″-methyl-2H,2″H-[1,2′:4′,1″-terpyridine]-2,2″-diketone], the IC50 at p38α/MK2 complex was determined as 3.14 nM.
